Read-outs that look alike come from different tables or passages of the source.
Tests used:
AR = test system: AR; design: method as in Kleinstreuer et al., 2017; conditions: 2017, cited from earlier work; for Agonist reference: AR agonist reference class ref Kleinstreuer et al.; for Antagonist reference: AR antagonist reference class ref Kleinstreuer et al.
[1] = test system: human AR (LBD and AF2 domains) and the RID of human SRC2; design: method as in U.S. EPA, 2002b; conditions: cited from earlier work
[2] = test system: human AR (LBD and AF2 domains) and the RID of human SRC2; design: method as in U.S. EPA, 2002b; conditions: activity call, agonist mode, 2 h; invitroDBv3.4 ref U.S. EPA, 2002b; cited from earlier work
[3] = test system: full-length human AR and the receptor interacting domain (RID) of SRC1; design: method as in U.S. EPA, 2002b; conditions: cited from earlier work
AR2 cells (HepG2-AR2) [4] = assay: Alamar Blue (resazurin) post hoc cell viability / cytotoxicity assay in AR2 cells; conditions: spid Viability, sheet antagonist_fits; for hill_tp (Hill model top): 0 where win_model is Constant
Description: (§1) For antagonist mode and cytotoxicity data, well-level normalized response (resp) was calculated as: resp=100 * RLU−bval/pval−bval where pval is the median RLU value of the MEC positive control wells (minimum four wells).

human AR [5] = target: T1, human AR (Homo sapiens, UniProt P10275); assay: AR2 assay, agonist mode: ligand-dependent AR homodimerization (NanoBiT luciferase complementation) in stable HepG2-AR2 cells; type: cell-based; conditions: for AR2 agonist: activity call, agonist mode; for hill_tp / max_med / win_model / hill_gw: sheet agonist_fits; for hill_tp: Hill model top (efficacy); for hill_tp / hill_gw: 0 given where win_model is Constant; for max_med: maximum median response; for win_model: winning concentration-response model (Constant, Hill, Gain-Loss); for hill_gw: Hill model gain slope (Hill coefficient);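 on hill tp: Log2 fold change of luminescence over DMSO vehicle wells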;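 on max med: Log2 fold change of luminescence over DMSO vehicle wells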
T1 sequence (P10275 1-920) 1: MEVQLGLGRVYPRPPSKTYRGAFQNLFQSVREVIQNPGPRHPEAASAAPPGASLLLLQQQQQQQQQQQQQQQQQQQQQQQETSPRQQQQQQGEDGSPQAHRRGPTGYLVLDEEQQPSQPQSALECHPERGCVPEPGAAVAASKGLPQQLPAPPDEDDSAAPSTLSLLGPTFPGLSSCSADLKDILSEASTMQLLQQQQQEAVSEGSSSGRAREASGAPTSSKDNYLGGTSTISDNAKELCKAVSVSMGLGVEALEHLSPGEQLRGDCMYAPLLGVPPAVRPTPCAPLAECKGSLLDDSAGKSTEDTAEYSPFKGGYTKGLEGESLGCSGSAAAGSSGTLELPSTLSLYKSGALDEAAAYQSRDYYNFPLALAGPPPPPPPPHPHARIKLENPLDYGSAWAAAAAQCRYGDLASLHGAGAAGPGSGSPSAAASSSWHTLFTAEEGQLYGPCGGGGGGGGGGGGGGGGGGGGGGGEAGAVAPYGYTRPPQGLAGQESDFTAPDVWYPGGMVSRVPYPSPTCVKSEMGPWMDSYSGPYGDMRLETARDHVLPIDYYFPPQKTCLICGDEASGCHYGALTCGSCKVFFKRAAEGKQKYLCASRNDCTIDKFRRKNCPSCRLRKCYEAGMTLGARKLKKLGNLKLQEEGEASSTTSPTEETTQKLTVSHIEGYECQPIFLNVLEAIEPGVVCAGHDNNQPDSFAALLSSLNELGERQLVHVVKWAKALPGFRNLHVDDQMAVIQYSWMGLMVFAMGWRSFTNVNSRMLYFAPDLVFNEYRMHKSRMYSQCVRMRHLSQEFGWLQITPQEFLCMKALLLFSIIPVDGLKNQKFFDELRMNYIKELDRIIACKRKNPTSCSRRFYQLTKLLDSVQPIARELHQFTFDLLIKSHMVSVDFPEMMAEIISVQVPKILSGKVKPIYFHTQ
T1 sequence (P10275 1-920) 2: T1 sequence (P10275 1-920) 1

AR2 cells (HepG2-AR2) [6] = test system: AR2 cells (HepG2-AR2)
Description: as §1

human AR [7] = target: T1, human AR; assay: AR2 assay, antagonist mode: disruption of R1881 (10 nM)-induced AR homodimerization in HepG2-AR2 cells; type: cell-based; conditions: for AR2 antagonist: activity call, antagonist mode, 18 h
human AR [8] = target: T1, human AR; assay: cell-based; design: species or system AR2 cells (HepG2-AR2); NanoLuc complementation AR homodimerization, agonist mode, luminescence gain, AC50 by Hill fit; conditions: hill_ga, spid=Bgal; agonist mode, 18 h, no CYP expressed
human AR [9] = target: T1, human AR; assay: cell-based; design: species or system AR2 cells (HepG2-AR2); NanoLuc complementation AR homodimerization, antagonist mode, loss of agonist-induced luminescence, AC50 by Hill fit; conditions: hill_ga, antagonist mode, 10 nM agonist stimulus, 18 h, no CYP expressed
[10] = activity call, 8 h, single protocol detects agonists and antagonists, invitroDBv3.4 ref U.S. EPA, 2002b
[11] = activity call, 16 h, single protocol detects agonists and antagonists, invitroDBv3.4 ref U.S. EPA, 2002b
[12] = spid AR_antagonist, sheet antagonist_fits
[13] = spid AR_antagonist, sheet antagonist_fits, 0 where win_model is Constant
[14] = activity call, antagonist mode, 2 h, invitroDBv3.4 ref U.S. EPA, 2002b
[15] = spid AR_antagonist, sheet antagonist_fits, Hill fit parameter

Compound	Agonist reference (AR)	Antagonist reference (AR)	UPitt agonist [2]	max_med (maximum median response) (AR2 cells (HepG2-AR2) [4])	hill_tp (Hill model top) (AR2 cells (HepG2-AR2) [4])	OT 8 hr [3, 10]	OT 16 hr [3, 11]	hill_tp (human AR [5])	max_med (human AR [5])	win_model (human AR [5])	hill_ga (Hill model log AC50) (AR2 cells (HepG2-AR2) [6])	hill_tp (Hill model top) (human AR [7])	max_med (maximum median response) (human AR [7])	win_model (winning concentration-response model) (human AR [7]; [12])	hill_gw (Hill model slope) (human AR [7]; [13])	Antagonist reference (AR; Supplementary Table S1)	UPitt antagonist [1, 14]	AR2 antagonist (human AR [7])	AC50 (human AR [9]; spid=Bgal) [µM]	AC50 (human AR [9]; spid=No_RNA) [µM]	further results
C[C@]12CCC(=O)C=C1CC[C@@H]1[C@@H]2CC[C@@]2(C)[C@H]1CC[C@]2(C)O [17-Methyltestosterone]	Strong	Inactive	0	23.6208	30.9505																Agonist reference (AR; Supplementary Table S1): Strong; UPitt antagonist [1]: 0; OT 8 hr [3]: 1; OT 16 hr [3]: 1
CCCCNC(=O)n1c(NC(=O)OC)nc2ccccc21 [Benomyl]	Inactive		0	28.9418	26.9649	0	1	0	0.04446	Constant	0.6267	30.7847	31.5571	Hill	3.063						AR2 agonist (human AR [5]; 18 h): 0
CC(O)(CS(=O)(=O)c1ccc(F)cc1)C(=O)Nc1ccc(C#N)c(C(F)(F)F)c1 (centres unmarked) [Bicalutamide]		Strong		19.8696	21.5759	1	1									Strong	1				hill_tp (Hill model top) (AR2 cells (HepG2-AR2) [4]; listed as BICAL): 57.2356; max_med (maximum median response) (AR2 cells (HepG2-AR2) [4]; listed as BICAL): 25.4903
CC(C)(c1ccc(O)cc1)c1ccc(O)cc1 [Bisphenol A]		Moderate		20.3748	26.326	0	1	0.2654	0.1199	Gain-Loss				Hill	1.098	Moderate	1	1	13.1	15.9	activity call in agonist mode (human AR [5]; 128-chemical evaluation, 18 h, active = maximal median response >5*bmad): tested negative; hill_gw (human AR [5]): 0.5365; AC50 (human AR [8]): > 99.9 µM; max_med (maximum median response) (human AR [7]; [12]): 101.007; hill_tp (Hill model top) (human AR [7]; [13]): 118.275
COC(=O)Nc1nc2ccccc2[nH]1 [Carbendazim]	Inactive		0	17.1488	11.742	0	1	0	0.02367	Constant	1.227	18.0536	16.7598	Hill	8						AR2 agonist (human AR [5]; 18 h): 0
CC(=O)O[C@]1(C(C)=O)CC[C@H]2[C@@H]3C=C(Cl)C4=CC(=O)[C@@H]5C[C@@H]5[C@]4(C)[C@H]3CC[C@@]21C [Cyproterone acetate]	Weak	Moderate	1	16.8337	12.2685	1	1									Moderate	1				Agonist reference (AR; Supplementary Table S1): Weak
CC#C[C@]1(O)CC[C@H]2[C@@H]3CCC4=CC(=O)CCC4=C3[C@@H](c3ccc(N(C)C)cc3)C[C@@]21C [Mifepristone]		Strong		9.555	0	1	1									Strong	1				
CC1(C)C(C=C(Cl)Cl)C1C(=O)OCc1cccc(Oc2ccccc2)c1 (centres unmarked) [Permethrin]	Inactive		0	5.481	0	0	0	0	0.006626	Constant	0	63.3496	53.132	Hill	1.786				27.5	47.3	AR2 agonist (human AR [5]; 18 h): 0
CC12CC1(C)C(=O)N(c1cc(Cl)cc(Cl)c1)C2=O (centres unmarked) [Procymidone]		Weak		14.9874	19.1789	0	0	0.2332	0.2214	Hill	-1.506		95.0019	Hill	0.938	Weak	1	1	3.84	4.23	hill_gw (human AR [5]): 8; AC50 (human AR [8]): > 99.9 µM
CCCC1COC(Cn2cncn2)(c2ccc(Cl)cc2Cl)O1 (centres unmarked) [Propiconazole]		Weak		5.206	0	1	1	0	0.05395	Constant		116.132	96.3637	Hill	1.532	Weak	1	1	33.8	32.2	
C[C@H]1CCCC(=O)CCC/C=C/c2cc(O)cc(O)c2C(=O)O1 [Zearalenone]		Weak		41.4682		0	0	0	0.2969	Constant						Weak	1	1	9.73	7.46	hill_tp (Hill model top of curve) (AR2 cells (HepG2-AR2) [4]; Hill fit parameter): 49.8014; max_med (maximum median response) (human AR [7]; [12]): 103.904; win_model (winning curve-fit model) (human AR [7]; spid AR_antagonist, sheet antagonist_fits, Constant = no concentration response): Hill; hill_gw (Hill model slope/Hill coefficient) (human AR [7]; [15]): 2.042; hill_tp (Hill model top of curve) (human AR [7]; [15]): 105.112

— paper PMC10112521, “High-throughput AR dimerization assay identifies androgen disrupting chemicals and metabolites” (Frontiers in Toxicology, 2023)
